Assay results reported in US20100197787A1, “Composition for Prevention of Hypoglycemic Condition” (priority 2005, published 2010).

Key:
rat brain cells [1] = assay: Promoting activity of orally administered branched amino acid in incorporation of carbohydrate into the brain (2DG-6P amount); type: in vivo; conditions: 1 hour after oral administration of suspension, 0.45 g/15 mL/kg BW, male Wistar rats, versus control group (physiological saline), FIG. 1
Description: Leucine group: An L-leucine suspension prepared by adding 3 g L-leucine to 100 mL physiological saline and suspending it with a homogenizer was used as a test solution of leucine group. Isoleucine group: An L-isoleucine suspension prepared by adding 3 g L-isoleucine to 100 mL physiological saline and suspending it with a homogenizer was used as a test solution of isoleucine group. Male 6-week-old Wistar rats (Charles River Japan, Inc.) were kept for 14 days and given free access to food (purified feed: AIN-93G manufactured by Nippon Nosan Kogyo Co., Ltd.) and water. At the age of 8-week-old, the rats were grouped depending on the body weight into 3 groups (control group, leucine group and isoleucine group). After the grouping, under ether anesthesia, the cervical region of each rat was opened, and a catheter was inserted into the jugular vein. The other end of the catheter was passed subcutaneously, exposed on the back and connected via a harness to, and fixed to, a swivel. Then each rat was housed in a separate metabolism cage. Physiological saline was administered via the catheter continuously at a rate of 1 mL/hr/body to the rat. […] 20 μL of the plasma was placed in a vial for liquid scintillation counter measurement, and then 5 mL scintillator was added to and mixed with the plasma, which was then measured for its tritium level (count) with a liquid scintillation counter to determine the amount of 2DG. The blood glucose level was measured by a glucose oxidase dye method. […] 900 μL of the separated supernatant was placed in a vial for liquid scintillation counter measurement, and then 5 mL scintillator was added to and mixed with the supernatant, which was then measured for its tritium level (count) with a liquid scintillation counter to determine the amount of 2DG. […] 900 μL of the separated supernatant was placed in a vial for liquid scintillation counter measurement, and then 10 mL scintillator was added to and mixed with the supernatant, which was then measured for its tritium level (count) with a liquid scintillation counter to determine the amount of 2DG and 2DG-6P. […]

rat brain cells [2] = assay: Promoting activity of intravenously administered BCAA in incorporation of carbohydrate into the brain (2DG-6P amount); type: in vivo; conditions: at 24 hours after intravenous administration, 1.5% by mass in 5% by mass glucose, 10 mL/kg/hr, male SD rats, versus control group (5% glucose) and mixed amino acid group, FIG. 2
Description: Control group: A solution prepared by dissolving glucose at a concentration of 5% by mass in purified water was used as the test solution for the control group. Mixed amino acid group: A solution prepared by dissolving […] (registered trademark, manufactured by Otsuka Pharmaceutical Co., Ltd.) at a concentration of 1.5% by mass in purified water containing 5% by mass glucose was used as the test solution for the mixed amino acid group. Leucine group: A solution prepared by dissolving L-leucine at a concentration of 1.5% by mass in purified water containing 5% by mass glucose was used as the test solution for the leucine group. Isoleucine group: A solution prepared by dissolving L-isoleucine at a concentration of 1.5% by mass in purified water containing 5% by mass glucose was used as the test solution for the isoleucine group. Valine group: A solution prepared by dissolving L-valine at a concentration of 1.5% by mass in purified water containing 5% by mass glucose was used as the test solution for the valine group. Male […] SD rats (Nippon Clare) were kept for 14 days and given free access to food (purified feed: AIN-93G manufactured by Nippon Nosan Kogyo Co., Ltd.) and water. At the age of 8-week-old, the rats were grouped depending on the body weight into 5 groups (control group, mixed amino acid group, leucine group, isoleucine group and valine group). After the grouping, under ether anesthesia, the cervical region of each rat was opened, and a catheter was inserted into the jugular vein. The other end of the catheter was passed subcutaneously, exposed on the back and connected via a harness to, and fixed to, a swivel. Then each rat was housed in a separate metabolism cage. […] The separated plasma was measured for its 2DG level and blood glucose level in the same manner as in the test method in Test Example 1. […] After blood removal, the brain tissue was removed, mixed with 1N NaOH that was 4 parts of the brain tissue by weight, and then heated in a water bath at 60° C. for 1 hour to lyse the brain tissue. To the brain tissue lysate solution, 1N HCl in the same amount as that of 1N NaOH was added, thereby neutralizing the solution to give a neutralized homogenate of the brain tissue. The amount of 2DG-6P in the neutralized homogenate was measured in the same manner as in the test method in Test Example 1, to determine the amount of the carbohydrate incorporated into the brain cells. In statistical processing, after analysis of variance, Dunnett's multiple comparison with the control was carried out to test significant difference.

Row | Compound | amount of the carbohydrate incorporated into brain cells (amount of 2DG-6P) (rat brain cells [1]) | amount of the carbohydrate incorporated into brain cells (amount of 2DG-6P) (rat brain cells [1]; listed as isoleucine) | amount of the carbohydrate incorporated into brain cells (amount of 2DG-6P) (rat brain cells [2]) | amount of the carbohydrate incorporated into brain cells (amount of 2DG-6P) (rat brain cells [2]; listed as isoleucine) | amount of the carbohydrate incorporated into brain cells (amount of 2DG-6P) (rat brain cells [2]; listed as valine)
1 | CC[C@H](C)[C@H](N)C(=O)O [L-isoleucine] | higher than that of the control group | significantly promoted | higher than that of the control group and of the mixed amino acid group | tendency to promote incorporation of the carbohydrate into brain cells was recognized | 
2 | CC(C)C[C@H](N)C(=O)O [L-leucine] | higher than that of the control group |  | higher than that of the control group and of the mixed amino acid group |  | 
3 | CC(C)[C@H](N)C(=O)O [L-valine] |  |  | higher than that of the control group and of the mixed amino acid group |  | tendency to promote incorporation of the carbohydrate into brain cells was recognized
